Patent publication US12576040B2, “Ionizable lipids and methods of manufacture and use thereof” (priority 2020, dated 2026)
Like-named read-outs stand apart in the source and are kept apart here. Marks after values point to notes of the source that are not given here.

Experiments:
[1] = format: physicochemical; conditions: LNP containing the ionizable lipid
Description: • A: Ribogreen Assay for mRNA Encapsulation Efficiency. 1×TE Buffer and Triton Buffer (2% v/v in 1×TE Buffer) were added in duplicates into a black microplate per LNP. LNPs were diluted to 4 ng/ul in 1×DPBS pH 7.4 and added to each TE/Triton well in a ratio 1:1. Two standard curves were included in the Ribogreen Assay, one containing mRNA and 1×TE Buffer and other containing mRNA and Triton Buffer. Each one of these standard curves were used to calculate the mRNA concentration in each TE Buffer or Triton Buffer. This approach using two standard curves is more accurate for calculating the encapsulation efficiency and mRNA concentrations, in comparison to a single standard curve. Standards were included in the microplate after diluted LNPs were added to the plate. Microplates were incubated at 37° C. for 10 minutes to extract LNPs with Triton. Ribogreen reagent was diluted 1:100 in 1×TE Buffer and added to each well in a ratio 1:1. Microplates were immediately introduced into the Cytation 5 Cell Imaging Multi-Mode Reader (Biotek) to read Fluorescence (Ex485/Em528). The results are illustrated in FIG. 34. • B: Dynamic Light Scattering for LNP Size (red dots are PDI right y axis). LNPs were diluted to 6.25 ng/ul in 1×DPBS pH 7.4 and transferred into a quartz cuvette (ZEN2112) to measure size by Dynamic Light Scattering (DLS) in the Zetasizer Nano ZS (Malvern Panalytical) using particle RI of 1.45 and Absorption of 0.001 in 1×PBS at 25° C. with viscosity of 1.02 cP and RI of 1.335. Measurements were made using a 173° Backscatter angle of detection previously equilibrated to 25° C. for 30 seconds in duplicates, each with 5 runs and 10 second run duration, without delay between measurements. […] Data was analyzed using a General-Purpose model with normal resolution. The results are illustrated in FIG. 35. • C: Zeta Potential for LNP charge, pKa and pI. LNPs were diluted in a 75 mM TNS Buffer (10 mM of each of glycylglycine, acetate, imidazole, 20 mM borate, 25 mM NaCl) to contain 0.8 mg of total mRNA in 800 ul of the TNS Buffer and transferred into a Folded Capillary Zeta Cell (DTS1070) to measure size by Dynamic Light Scattering (DLS) and electrophoretic mobility by Electrophoretic Light Scattering (ELS) in the Zetasizer Nano ZS (Malvern Panalytical). Zeta potential is measured under conditions of controlled voltage to limit ohmic heating in a solution with 4 buffers with pKas spread across the pH range 3-10 with 0.5 intervals. LNP pKa is calculated by fitting the Henderson Hasselbalch equation to zeta potential data. LNP pI is found by interpolating zeta potential to zero. We use electrokinetic models to calculate Henry's function and charge of the LNP. The results are illustrated in FIG. 36. • D: TNS Assay for LNP pKa. […] Fluorescence TNS is measured in a solution with 4 buffers with pKas spread across the pH range 3-10 with 0.5 intervals. The pKa of the LNP was measured using the pH-dependence of fluorescence enhancement of the anionic dye TNS, higher intensity at lower pH and lower at high pH. LNP pKa is calculated by fitting the Henderson Hasselbalch equation to fluorescence data from the TNS Assay. […]
LNP pKa was determined using the TNS assay. […] The Cytation 5 Cell Imaging Multi-Mode Reader (Biotek) was used to read Fluorescence (Ex321/Em445). The pH was measured in each well after TNS addition. […]

[2] = mRNA copies per LNP from molecular volume model and DLS diameter; format: physicochemical; conditions: average mRNA copies per LNP
Description: Exemplary ADDE ionizable lipids. pKas were obtained from ACDLabs Percepta for the ionizable lipid, and by zeta potential and TNS for LNPs containing the ionizable lipids. LNP isoelectric pI was obtained from the zeta potential. LNP diameter is number-average from DLS. Average mRNA copies per LNP was calculated using a molecular volume model and the DLS diameter and is proportional to LNP volume.
LNPs were diluted to 6.25 ng/μL total mRNA in PBS pH=7.4 and transferred into a quartz cuvette (ZEN2112) to measure size by Dynamic Light Scattering (DLS) in the Zetasizer Nano ZS (Malvern Panalytical) using particle RI of 1.45 and absorption of 0.001 in PBS at 25° C. with viscosity of 0.888 cP and RI of 1.335. Measurements were made using a 1730 backscatter angle of detection previously equilibrated to 25° C. for 30 seconds in duplicates, each with 5 runs and 10 second run duration, without delay between measurements. […] Data was analyzed using a General-Purpose model with normal resolution. Diameter are reported as the number-average that corresponds more closely to physical size seen in electron microscopy versus the zeta-average. A molecular volume model described previously was used to estimate the number of mRNA copies in the LNP using the number average diameter to calculate LNP volume. LNPs were diluted into the TNS buffer described above at pH ranging from 3-10 for zeta potential measurement by Electrophoretic Light Scattering (ELS) in the Zetasizer Nano ZP (Malvern Panalytical) using the same material and dispersant parameters described above and the Smoluchowski model. Each measurement had voltage set manually at 80 Volts to avoid ohmic heating that occurred if voltage was set automatically. Measurements in the disposable folded capillary cuvette with an automatic attenuation selection for photon counts were made in triplicates for 20 runs each, and 30 second delay between each replicate. Mathematica was used to fit zeta potential data to the data to the extended Henderson-Hasselbalch equation Ψ=Ψ_max−((Ψ_max−Ψ_min))/((1+10^(((pKa−pH))/n))) to provide the pKa, n and low pH and high pH zeta potential limits Ψ_max and Ψ_min, respectively. The extended model is used here, since the LNP pKa is ionization-state-dependent in a way similar to a polyelectrolyte. […] The isoelectric pI was the pH found by interpolating zeta potential to zero. Cryoelectron Microscopy

[3] = format: physicochemical
Description: (§1) • A: Ribogreen Assay for mRNA Encapsulation Efficiency. 1×TE Buffer and Triton Buffer (2% v/v in 1×TE Buffer) were added in duplicates into a black microplate per LNP. LNPs were diluted to 4 ng/ul in 1×DPBS pH 7.4 and added to each TE/Triton well in a ratio 1:1. Two standard curves were included in the Ribogreen Assay, one containing mRNA and 1×TE Buffer and other containing mRNA and Triton Buffer. Each one of these standard curves were used to calculate the mRNA concentration in each TE Buffer or Triton Buffer. This approach using two standard curves is more accurate for calculating the encapsulation efficiency and mRNA concentrations, in comparison to a single standard curve. Standards were included in the microplate after diluted LNPs were added to the plate. Microplates were incubated at 37° C. for 10 minutes to extract LNPs with Triton. Ribogreen reagent was diluted 1:100 in 1×TE Buffer and added to each well in a ratio 1:1. Microplates were immediately introduced into the Cytation 5 Cell Imaging Multi-Mode Reader (Biotek) to read Fluorescence (Ex485/Em528). The results are illustrated in FIG. 34. • B: Dynamic Light Scattering for LNP Size (red dots are PDI right y axis). LNPs were diluted to 6.25 ng/ul in 1×DPBS pH 7.4 and transferred into a quartz cuvette (ZEN2112) to measure size by Dynamic Light Scattering (DLS) in the Zetasizer Nano ZS (Malvern Panalytical) using particle RI of 1.45 and Absorption of 0.001 in 1×PBS at 25° C. with viscosity of 1.02 cP and RI of 1.335. Measurements were made using a 173° Backscatter angle of detection previously equilibrated to 25° C. for 30 seconds in duplicates, each with 5 runs and 10 second run duration, without delay between measurements. […] Data was analyzed using a General-Purpose model with normal resolution. The results are illustrated in FIG. 35. • C: Zeta Potential for LNP charge, pKa and pI. LNPs were diluted in a 75 mM TNS Buffer (10 mM of each of glycylglycine, acetate, imidazole, 20 mM borate, 25 mM NaCl) to contain 0.8 mg of total mRNA in 800 ul of the TNS Buffer and transferred into a Folded Capillary Zeta Cell (DTS1070) to measure size by Dynamic Light Scattering (DLS) and electrophoretic mobility by Electrophoretic Light Scattering (ELS) in the Zetasizer Nano ZS (Malvern Panalytical). Zeta potential is measured under conditions of controlled voltage to limit ohmic heating in a solution with 4 buffers with pKas spread across the pH range 3-10 with 0.5 intervals. LNP pKa is calculated by fitting the Henderson Hasselbalch equation to zeta potential data. LNP pI is found by interpolating zeta potential to zero. We use electrokinetic models to calculate Henry's function and charge of the LNP. The results are illustrated in FIG. 36. • D: TNS Assay for LNP pKa. LNPs were diluted to keep a final concentration of 75 uM of the ionizable lipid and 6 uM of TNS in a 75 mM TNS Buffer (10 mM of each of glycylglycine, acetate, imidazole, 20 mM borate, 25 mM NaCl) in order to keep a ratio TNS/ionizable of 0.08. Fluorescence TNS is measured in a solution with 4 buffers with pKas spread across the pH range 3-10 with 0.5 intervals. The pKa of the LNP was measured using the pH-dependence of fluorescence enhancement of the anionic dye TNS, higher intensity at lower pH and lower at high pH. LNP pKa is calculated by fitting the Henderson Hasselbalch equation to fluorescence data from the TNS Assay. The results are illustrated in FIG. 37.
LNPs were diluted to 6.25 ng/μL total mRNA in PBS pH=7.4 and transferred into a quartz cuvette (ZEN2112) to measure size by Dynamic Light Scattering (DLS) in the Zetasizer Nano ZS (Malvern Panalytical) using particle RI of 1.45 and absorption of 0.001 in PBS at 25° C. with viscosity of 0.888 cP and RI of 1.335. Measurements were made using a 1730 backscatter angle of detection previously equilibrated to 25° C. for 30 seconds in duplicates, each with 5 runs and 10 second run duration, without delay between measurements. […]

[4] = Dynamic Light Scattering for LNP size; format: physicochemical; conditions: number-average from DLS
Description: as §1, with “37. […]” for “37.”

[5] = format: physicochemical; conditions: Table 11a
Description: In certain embodiments, the pKa of the Ionizable Lipids of the Invention included in the LNP is measured by fluorescent enhancement of an anionic lipophilic dye TNS binding to the LNP containing the ionizable lipid. Prior studies have shown that the TNS pKa needs to be near 6.5 for efficient delivery to liver upon IV administration. The pKa in the aqueous phase can be predicted by software such ACDLabs Percepta, resulting in pKas that are higher than the TNS pKa. Given the importance of the LNP pKa in determining their efficiency, we developed new methods (zeta potential, ^1H NMR, modeling) to link the intrinsic pKa of the ionizable lipid to LNP ionization properties, in order to rationally design effective systems for mRNA delivery.
In certain embodiments, the hydrophilic DMG-PEG forms the shell of the LNP. The amount of nucleic acid is represented by the NP mole ratio of the amine on the ionizable lipid to the phosphate groups on the nucleic acid backbone and is typically 3-6. In certain embodiments, the pKa of the LNP to be in the 6-7 range corresponding to the pH in the early endosome. […] The pKa of the LNP was measured using the pH-dependence of fluorescence enhancement of the anionic dye TNS. In certain embodiments, the pKa-dependent endosomal release mechanism was described as an ion-pairing event between the cationic protonated ionizable lipid and anionic endosomal phospholipids where a divergent cone-shape lipid tail of the ionizable lipid facilitates membrane rupture.

[6] = Table 11a; known ionizable lipids, LNP pKa; cited from earlier work
physchem = format: physicochemical; conditions: for pKa: water soluble analogue
Description: The pH-dependence of proton NMR chemical shifts was used to measure the pKa's of the ionizable lipid water-soluble analogues (WSA) following published methods5,6. Chemical shifts of piperazine, imidazole, 2-chloroacetic acid and acetic acid were used as internal pH indicators. Solutions for MC3-WSA were prepared with 100 mM KCl, 2 mM piperazine, 2 mM imidazole, and 5 mM water soluble ionizable lipid analogue in 95% H2O-5% D2O. Solutions for the terminal(N1) and aza amines(N2) at the p-position of carboxylic esters of C24-WSA were prepared with 100 mM KCl, 2 mM piperazine, 2 mM imidazole, 0.2 mM DSS, and 5 mM water soluble ionizable lipid analogue in 95% H2O-5% D2O. Solutions for the internal amine (N3) of C24-WSA were prepared with 100 mM KCl, 2 mM chloroacetic acid, 2 mM acetic acid, 0.2 mM DSS, and 5 mM water soluble ionizable lipid analogue in 95% H2O-5% D2O. Solutions were split into two equal volumes and one titrated to a lower pH using 0.1 M HCl and the other to an upper pH using 0.1 M NaOH where the lower and upper pH bracketed the desired range of pH. Intermediate pH values were obtained by mixing different proportions of these two solutions. NMR measurements were performed on a Bruker 400 MHz spectrometer where 1H spectra were acquired at each of ˜24 pH values ranging from the lower to upper pH. […] Chemical shifts from piperazine, imidazole, 2-chloroacetic acid, and acetic acid were then used to calculate the pH of each solution according to published methods5,6 and the chemical shifts of protons adjacent to each nitrogen in the ionizable lipid water sluble analogue headgroup were fit to the Henderson-Hasselbalch equation to provide the pKa of each Nitrogen. Spectra are in Supplementary FIG. 2.

CCCCCCCCCCC(CCCCCCCC)COC(=O)CCN(CCCCN1CCN(C)CC1)CCC(=O)OCC(CCCCCCCC)CCCCCCCCCC (stereo not drawn) [BODD-C2/C4-PipZ]
pKa, TNS [1]: 7.0 | mRNA copies [2]: 3.3 | pKa,ZP ([3]; LNP containing the ionizable lipid, Henderson Hasselbalch fit to zeta potential): 4.9* | pI, ZP ([3]; LNP isoelectric pI from zeta potential): 5.8 | Diameter (nm) [4]: 55 nm

CCCCCCCC/C=C\CCCCCCCC(=O)OCC(CN(C)C)OC(=O)CCCCCCC/C=C\CCCCCCCC (stereo not drawn) [DODAP, 1,2-dioleoyl-3-dimethylammonium propane]
ΔpKa = Classic-Galas [5]: 1.8 | ΔpKa = Classic-TNS [5]: 2.2 | pKa, TNS [6]: 5.8

CN1CCN(CCCCN(CCC(=O)OC(C)(C)C)CCC(=O)OC(C)(C)C)CC1 [Lipid C24-WSA]
difference between NMR-measured and theoretical pKas (physchem): ≤ 0.4 units | pKa (physchem; read-out: pKa by 1H NMR, central nitrogen): 3.7 | pKa (physchem; read-out: pKa by 1H NMR, nitrogen closest to the linker): 7.5 | pKa (physchem; read-out: pKa by 1H NMR, terminal nitrogen): 8.1

CCCCC/C=C\C/C=C\CCCCCCCCC(CCCCCCCC/C=C\C/C=C\CCCCC)OC(=O)CCCN(C)C [MC3]
ΔpKa = Classic-Galas [5]: 2.66 | ΔpKa = Classic-TNS [5]: 2.96 | pKa, TNS [6]: 6.44

CCCCCCCCCCOC(=O)CCCCCN(CCO)CCCCCCCC(=O)OC(CCCCCCCC)CCCCCCCC [Moderna Lipid H]
ΔpKa = Classic-Galas [5]: 3.12 | ΔpKa = Classic-TNS [5]: 2.22 | pKa, TNS [6]: 6.68
